Columns and labels:
A-431 = assay: in vitro killing activity; type: cell-based, Human; settings: Homo sapiens, A-431; 120 time of incubation
Procedure: (§1) Different concentrations of compounds CPT-1, CPT-2, CPT-3, CPT-4, Dxd (MedChem Express, Cat #: HY-13631D) and SN38 (MedChem Express, Cat #: HY-13704) were used to treat different human tumor cell lines, mice tumor cell lines, rat tumor cell lines or dog tumor cell lines cultured in a cell culture plate, respectively. And the killing activity was detected after 72 h-120 h incubation by IncuCyte (Sartorius AG, IncuCyte® S3) or MicroplateReader.

BT474 = assay: in vitro killing activity; type: cell-based, Human; settings: Homo sapiens, BT-474; 120 time of incubation
Procedure: as §1

BxPC-3 = assay: in vitro killing activity; type: cell-based, Human; settings: Homo sapiens, BXPC-3; 120 time of incubation
Procedure: as §1

HCC1954 = assay: in vitro killing activity; type: cell-based, Human; settings: Homo sapiens, HCC1954; 120 time of incubation
Procedure: as §1

HS-746T = assay: in vitro killing activity; type: cell-based, Human; settings: Homo sapiens, Hs746T; 120 time of incubation
Procedure: as §1

Hela = assay: in vitro killing activity; type: cell-based, Human; settings: Homo sapiens, HeLa; 120 h incubation
Procedure: as §1

HuH-7 = assay: in vitro killing activity; type: cell-based, Human; settings: Homo sapiens, Huh-7; 120 h incubation
Procedure: as §1

LOVO = assay: in vitro killing activity; type: cell-based, Human; settings: Homo sapiens, LoVo; 120 h incubation
Procedure: as §1

NCI-H1781 = assay: in vitro killing activity; type: cell-based, Human; settings: Homo sapiens, NCI-H1781; 120 time of incubation
Procedure: as §1

NCI-H1975 = assay: in vitro killing activity; type: cell-based, Human; settings: Homo sapiens, NCI-H1975; 120 time of incubation
Procedure: as §1

NCI-H2030 = assay: in vitro killing activity; type: cell-based, Human; settings: Homo sapiens, NCI-H2030; 120 time of incubation
Procedure: as §1

NCI-H226 = assay: in vitro killing activity; type: cell-based, Human; settings: Homo sapiens, NCI-H226; 120 h incubation
Procedure: as §1

NCI-H69 = assay: in vitro killing activity; type: cell-based, Human; settings: Homo sapiens, NCI-H69; 120 time of incubation
Procedure: as §1

NCI-N87 = assay: in vitro killing activity; type: cell-based, Human; settings: Homo sapiens, NCI-N87; 120 time of incubation
Procedure: as §1

OVKATE = assay: in vitro killing activity; type: cell-based, Human; settings: Homo sapiens; 120 time of incubation
Procedure: as §1

PC-3 = assay: in vitro killing activity; type: cell-based, Human; settings: Homo sapiens, PC-3; 120 time of incubation
Procedure: as §1

Panc 02.03 = assay: in vitro killing activity; type: cell-based, Human; settings: Homo sapiens, Panc 02.03; 120 time of incubation
Procedure: as §1

SKOV-3 = assay: in vitro killing activity; type: cell-based, Human; settings: Homo sapiens, SK-OV-3; 120 time of incubation
Procedure: as §1

SW156 = assay: in vitro killing activity; type: cell-based, Human; settings: Homo sapiens; 120 time of incubation
Procedure: as §1

SW620 = assay: in vitro killing activity; type: cell-based, Human; settings: Homo sapiens, SW-620; 120 h incubation
Procedure: as §1

U-2-OS = assay: in vitro killing activity; type: cell-based, Human; settings: Homo sapiens, U2OS; 120 time of incubation
Procedure: as §1

CMT-U27 = assay: in vitro killing activity; type: cell-based, Dog; settings: Canis lupus familiaris; 120 time of incubation
Procedure: as §1

D17 = assay: in vitro killing activity; type: cell-based, Dog; settings: Canis lupus familiaris, D17; 120 time of incubation
Procedure: as §1

DCOL1 (S+L−) = assay: in vitro killing activity; type: cell-based, Dog; settings: Canis lupus familiaris; 120 time of incubation
Procedure: as §1

MP-0094-2 = assay: in vitro killing activity; type: cell-based, Dog; settings: Canis lupus familiaris; 120 time of incubation
Procedure: as §1

MP-0094-3 = assay: in vitro killing activity; type: cell-based, Dog; settings: Canis lupus familiaris; 120 time of incubation
Procedure: as §1

MP-1044-1 = assay: in vitro killing activity; type: cell-based, Dog; settings: Canis lupus familiaris; 72 time of incubation
Procedure: as §1

MP-1092-1 = assay: in vitro killing activity; type: cell-based, Dog; settings: Canis lupus familiaris; 120 time of incubation
Procedure: as §1

B16F10 = assay: in vitro killing activity; type: cell-based, Mice; settings: Mus musculus, B16-F10; 75 time of incubation
Procedure: as §1

CT26 = assay: in vitro killing activity; type: cell-based, Mice; settings: Mus musculus, CT26; 96 time of incubation
Procedure: as §1

MC38 = assay: in vitro killing activity; type: cell-based, Mice; settings: Mus musculus, MC-38; 120 time of incubation
Procedure: as §1

L6 = assay: in vitro killing activity; type: cell-based, Rat; settings: Rattus norvegicus, L6; 120 h incubation
Procedure: as §1

PC12 = assay: in vitro killing activity; type: cell-based, Rat; settings: Rattus norvegicus, PC-12; 120 time of incubation
Procedure: as §1

multiple cell lines = assay: in vitro killing activity, multiple tumor cell lines; type: cell-based, human, mice, rat, dog
Procedure: as §1

CC[C@@]1(O)C(=O)OCc2c1cc1n(c2=O)Cc2c-1nc1ccc(N)c3c1c2CCS3 [CPT-1] showed an IC50 (A-431) of 2.97 nM, an IC50 (BT474) of 6.22 nM and an IC50 (BxPC-3) of 0.213 nM. It also gave an IC50 (HCC1954) of 1.31 nM, an IC50 (HS-746T) of 0.523 nM and an IC50 (Hela) of 1.03 nM. It also gave an IC50 (HuH-7) of 0.742 nM, an IC50 (LOVO) of 1.52 nM and an IC50 (NCI-H1781) of 0.297 nM. It also gave an IC50 (NCI-H1975) of 1.71 nM, an IC50 (NCI-H2030) of 1.1 nM and an IC50 (NCI-H226) of 2.37 nM. For the same compound, the IC50 (NCI-H69) was 0.299 nM, the IC50 (NCI-N87) was 1.2 nM and the IC50 (OVKATE) was 2.24 nM. It also gave an IC50 (PC-3) of 0.859 nM, an IC50 (Panc 02.03) of 0.266 nM and an IC50 (SKOV-3) of 1.8 nM. The IC50 (SW156) was 0.373 nM, the IC50 (SW620) was 0.75 nM and the IC50 (U-2-OS) was 2.65 nM. For the same compound, the IC50 (CMT-U27) was 0.937 nM, the IC50 (D17) was 0.841 nM and the IC50 (DCOL1 (S+L−)) was 1.33 nM. The IC50 (MP-0094-2) was 2.69 nM, the IC50 (MP-0094-3) was 3.92 nM and the IC50 (MP-1044-1) was 8.63 nM. It also gave an IC50 (MP-1092-1) of 0.988 nM, an IC50 (B16F10) of 3.29 nM and an IC50 (CT26) of 3.84 nM. For the same compound, the IC50 (MC38) was 6.72 nM, the IC50 (L6) was 3.69 nM and the IC50 (PC12) was 1.67 nM. The “in vitro killing activity” value (multiple cell lines) was “good in vitro killing activity” and the “tumor cell inhibition effect compared with Dxd and SN38” value (multiple cell lines) was “higher tumor cell inhibition effect than Dxd and SN38”.

For CC[C@@]1(O)C(=O)OCc2c1cc1n(c2=O)Cc2c-1nc1ccc(N)c3c1c2CCO3 [CPT-2, (S)-4-amino-9-ethyl-9-hydroxy-1,9,12,15-tetrahydro-13H-pyrano[4,3,2-de]pyrano[3′,4′:6,7]indolizino[1,2-b]quinoline-10,13(2H)-dione], the IC50 (A-431) was 2.84 nM, the IC50 (BT474) was 11.9 nM and the IC50 (BxPC-3) was 0.289 nM. The IC50 (HCC1954) was 1.14 nM, the IC50 (HS-746T) was 0.55 nM and the IC50 (Hela) was 1.41 nM. The IC50 (HuH-7) was 0.662 nM, the IC50 (LOVO) was 1.15 nM and the IC50 (NCI-H1781) was 0.399 nM. The IC50 (NCI-H1975) was 1.97 nM, the IC50 (NCI-H2030) was 1.31 nM and the IC50 (NCI-H226) was 2.77 nM. For the same compound, the IC50 (NCI-H69) was 0.318 nM, the IC50 (NCI-N87) was 1.48 nM and the IC50 (OVKATE) was 2.04 nM. The IC50 (PC-3) was 1.97 nM, the IC50 (Panc 02.03) was 0.301 nM and the IC50 (SKOV-3) was 1.96 nM. It also gave an IC50 (SW156) of 0.615 nM, an IC50 (SW620) of 0.824 nM and an IC50 (U-2-OS) of 1.41 nM. The IC50 (CMT-U27) was 1.28 nM, the IC50 (D17) was 1.29 nM and the IC50 (DCOL1 (S+L−)) was 2.29 nM. For the same compound, the IC50 (MP-0094-2) was 4.69 nM, the IC50 (MP-0094-3) was 7.15 nM and the IC50 (MP-1044-1) was 8.53 nM. For the same compound, the IC50 (MP-1092-1) was 1.75 nM, the IC50 (B16F10) was 5.47 nM and the IC50 (CT26) was 5.63 nM. For the same compound, the IC50 (MC38) was 9.57 nM, the IC50 (L6) was 3.88 nM and the IC50 (PC12) was 1.77 nM. For the same compound, the “in vitro killing activity” value (multiple cell lines) was “good in vitro killing activity” and the “tumor cell inhibition effect compared with Dxd and SN38” value (multiple cell lines) was “higher tumor cell inhibition effect than Dxd and SN38”.

Source: US20260315611A1, “LINKER COMPOUNDS AND LIGAND-DRUG CONJUGATES, PREPARATION METHODS AND USES THEREOF” (Biocytogen Pharmaceuticals (Beijing) Co., Ltd., priority 2023, published 2026)
